Source: article PMC4764579, “Structural insights into the mechanism of activation of the TRPV1 channel by a membrane-bound tarantula toxin” (eLife, 2016)
Positions of bridges follow the written chain, without caps; N, C: chain ends. Residues, ends and D or L forms follow the SMILES beside them.

Assay: Membrane partitioning of toxins into lipid vesicles measured using Trp fluorescence
Type: physicochemical
Conditions: Trp fluorescence, excitation 280 nm, F/F0 at 320 nm; LUVs 1:1 POPC:POPG extruded through 100 nm; toxin 2 or 5 µM in 10 mM HEPES, 1 mM EDTA, pH 7.0; available lipid 60% of total; fit of partition function; ± SEM, n = 3 or 4; SEM
Source text: Motivated by the amphipathic character evident in the structure of DkTx, together with the placement of the toxin at the protein-lipid interface when bound to TRPV1, we investigated the interaction of DkTx and each of its two lobes with lipid membranes. For these experiments, we took advantage of the presence of a single conserved and solvent accessible Trp residue in loop 2 of both K1 and K2 (Figure 1C,D; W11 and W53), and used Trp fluorescence to monitor the partitioning of the toxin from the aqueous solution into the membrane environment ([Gupta et al., 2015]; [Ladokhin et al., 2000]; [Milescu et al., 2007]). When aqueous solutions of DkTx were excited at a wavelength of 280 nm, emission spectra with maxima at 353 nm were obtained (Figure 5A, left), as expected for Trp residues residing in such an environment. […] To quantify the extent of partitioning as a function of lipid concentration, we measured the relative fluorescence intensity in a blue-shifted region of the spectra (e.g. 320 nm) as a function of lipid concentration, and fit a partition function to the data to obtain a mole-fraction partition coefficient (Kx) of (2.3 ± 0.7) × 10^6, indicating an energetically favorable interaction of DkTx with lipid membranes (Figure 5A, right). This strong interaction of DkTx with membranes would facilitate binding of the toxin to the channel by increasing the local concentration of the toxin near the channel and by a reduction in the dimensionality of diffusion within the membrane ([Axelrod and Wang, 1994]).
Figure 5. Interaction of DkTx and toxin constructs with lipid membranes measured using Trp fluorescence. (A–E, left panel) Trp emission spectra of DkTx (A), K1 without linker (B), K2 (C), bivalent K1 (K1K1) (D) and bivalent K2 (K2K2) (E) in the absence (black) and presence (blue, 1.6 mM for DkTx, 2 mM for K1-ΔL and K1K1, and 3 mM for K2 and K2K2) of lipid vesicles (1:1 mix of POPC:POPG). (A–E, right panel) Relative fluorescence intensity at 320 nm (F/F0) as a function of available lipid concentrations (60% of total lipid concentration). Smooth curves correspond to partition functions with Kx = (2.3 ± 0.7) × 10^6 and F/F0^max = 2.65 ± 0.08 for DkTx, Kx = (3.9 ± 1.1) × 10^5 and F/F0^max = 2.63 ± 0.07 for K1-ΔL, Kx = (2.0 ± 0.3) × 10^4 and F/F0^max = 3.71 ± 0.40 for K2, Kx = (2.9 ± 0.3) × 10^6 and F/F0^max = 2.47 ± 0.03 for K1K1 and Kx = (8.1 ± 2) × 10^5 and F/F0^max = 2.77 ± 0.55 for K2K2. Error bars correspond to SEM (n = 3 or 4). Partition functions for K1-ΔL and K2 are shown as dotted lines for comparison in D and E, respectively. (F) Comparisons of mole-fraction partition coefficient (Kx) of toxins. 7G-DkTx denotes a construct of DkTx whose linker (PYVPVTT) is replaced with 7 Gly residues. Error bars correspond to SEM (n = 3 or 4). DOI: http://dx.doi.org/10.7554/eLife.11273.020 Figure 5—figure supplement 1. Interaction of K1-K2 chimeras with lipid membranes measured using Trp fluorescence. (A–E, left panel) Trp emission spectra of K1(D1N) (A), K1(K2L2) (B), K1(K2L3) (C), K1(K2L4) (D) and K1(K2CT) (E) in the absence (black) and presence (blue, 2 mM) of lipid vesicles (1:1 mix of POPC:POPG). (A–D, right panel) Relative fluorescence intensity at 320 nm (F/F0) as a function of available lipid concentrations (60% of total lipid concentration). Smooth curves correspond to partition functions with Kx = (1.76 ± 0.06) × 10^6 and F/F0^max = 3.79 ± 0.02 for K1(D1N), Kx = (4.77 ± 1.39) × 10^5 and F/F0^max = 1.31 ± 0.02 for K1(K2L2), Kx = (1.02 ± 0.04) × 10^4 and F/F0^max = 3.69 ± 0.02 for K1(K2L3), and Kx = (0.90 ± 0.04) × 10^6 and F/F0^max = 2.59 ± 0.02 for K1(K2L4). Error bar corresponds to SEM (n = 3 or 4). Smooth curve of K1-ΔL was shown as a dotted line for comparison throughout the figures. (F) Comparisons of mole-fraction partition coefficient (Kx) of toxins. Error bars correspond to SEM (n = 3 or 4). DOI: http://dx.doi.org/10.7554/eLife.11273.021 [drawing 10] […]

Row | SMILES | mole-fraction partition coefficient (Kx)
1 | CC[C@H](C)[C@@H]1NC(=O)[C@H](Cc2ccccc2)NC(=O)[C@H](CCC(=O)O)NC(=O)[C@H](CCSC)NC(=O)[C@@H]2CCCN2C(=O)[C@@H]2CSSC[C@@H]3NC(=O)[C@H](C(C)C)NC(=O)[C@H](CCC(=O)O)NC(=O)CNC(=O)[C@H](CCC(=O)O)NC(=O)[C@H](CCCCN)NC(=O)[C@H](C)NC(=O)[C@@H](NC(=O)[C@@H](N)CC(N)=O)CSSC[C@H](NC(=O)[C@H](CSSC[C@@H](C(=O)N[C@@H](CCCCN)C(=O)N[C@@H](CCCCN)C(=O)N[C@@H](Cc4ccc(O)cc4)C(=O)N[C@@H](CCCCN)C(=O)O)NC(=O)[C@H](Cc4c[nH]cn4)NC(=O)[C@@H]4CCCN4C1=O)NC(=O)[C@H](CCCCN)NC(=O)[C@H](CCCCN)NC(=O)CNC(=O)[C@H](Cc1c[nH]c4ccccc14)NC(=O)[C@H](CO)NC3=O)C(=O)N[C@@H](CC(=O)O)C(=O)N[C@@H](CC(C)C)C(=O)N[C@@H](CC(=O)O)C(=O)N[C@@H](CC(N)=O)C(=O)N[C@@H](Cc1ccccc1)C(=O)N[C@@H](Cc1ccc(O)cc1)C(=O)N2 [K1(D1N)] (H-NCAKEGEVCSWGKKCCDLDNFYCPMEFIPHCKKYK-OH; disulfide 2-16, 9-23, 15-31) | (1.76 ± 0.06) × 10^6
2 | CC[C@H](C)[C@@H]1NC(=O)[C@H](Cc2ccccc2)NC(=O)[C@H](CCC(=O)O)NC(=O)[C@H](CCSC)NC(=O)[C@@H]2CCCN2C(=O)[C@@H]2CSSC[C@@H]3NC(=O)[C@H](C(C)C)NC(=O)[C@H](CCC(=O)O)NC(=O)CNC(=O)[C@H](CCC(=O)O)NC(=O)[C@H](CCCCN)NC(=O)[C@H](C)NC(=O)[C@@H](NC(=O)[C@@H](N)CC(=O)O)CSSC[C@H](NC(=O)[C@H](CSSC[C@@H](C(=O)N[C@@H](CCCCN)C(=O)N[C@@H](CCCCN)C(=O)N[C@@H](Cc4ccc(O)cc4)C(=O)N[C@@H](CCCCN)C(=O)O)NC(=O)[C@H](Cc4c[nH]cn4)NC(=O)[C@@H]4CCCN4C1=O)NC(=O)[C@H](CCCCN)NC(=O)[C@H](CO)NC(=O)CNC(=O)[C@H](Cc1c[nH]c4ccccc14)NC(=O)CNC3=O)C(=O)N[C@@H](CC(=O)O)C(=O)N[C@@H](CC(C)C)C(=O)N[C@@H](CC(=O)O)C(=O)N[C@@H](CC(N)=O)C(=O)N[C@@H](Cc1ccccc1)C(=O)N[C@@H](Cc1ccc(O)cc1)C(=O)N2 [K1(K2L2)] (H-DCAKEGEVCGWGSKCCDLDNFYCPMEFIPHCKKYK-OH; disulfide 2-16, 9-23, 15-31) | (4.77 ± 1.39) × 10^5
3 | CC[C@H](C)[C@@H]1NC(=O)[C@H](Cc2ccccc2)NC(=O)[C@H](CCC(=O)O)NC(=O)[C@H](CCSC)NC(=O)[C@@H]2CCCN2C(=O)[C@@H]2CSSC[C@@H]3NC(=O)[C@H](C(C)C)NC(=O)[C@H](CCC(=O)O)NC(=O)CNC(=O)[C@H](CCC(=O)O)NC(=O)[C@H](CCCCN)NC(=O)[C@H](C)NC(=O)[C@@H](NC(=O)[C@@H](N)CC(=O)O)CSSC[C@H](NC(=O)[C@H](CSSC[C@@H](C(=O)N[C@@H](CCCCN)C(=O)N[C@@H](CCCCN)C(=O)N[C@@H](Cc4ccc(O)cc4)C(=O)N[C@@H](CCCCN)C(=O)O)NC(=O)[C@H](Cc4c[nH]cn4)NC(=O)[C@@H]4CCCN4C1=O)NC(=O)[C@H](CCCCN)NC(=O)[C@H](CCCCN)NC(=O)CNC(=O)[C@H](Cc1c[nH]c4ccccc14)NC(=O)[C@H](CO)NC3=O)C(=O)N[C@@H](Cc1c[nH]cn1)C(=O)NCC(=O)N[C@@H](CC(C)C)C(=O)N[C@@H](CC(=O)O)C(=O)N2 [K1(K2L3)] (H-DCAKEGEVCSWGKKCCHGLDCPMEFIPHCKKYK-OH; disulfide 2-16, 9-21, 15-29) | (1.02 ± 0.04) × 10^4
4 | CC[C@H](C)[C@@H]1NC(=O)[C@H](Cc2ccccc2)NC(=O)[C@H](C)NC(=O)[C@H](CC(C)C)NC(=O)[C@@H]2CCCN2C(=O)[C@@H]2CSSC[C@@H]3NC(=O)[C@H](C(C)C)NC(=O)[C@H](CCC(=O)O)NC(=O)CNC(=O)[C@H](CCC(=O)O)NC(=O)[C@H](CCCCN)NC(=O)[C@H](C)NC(=O)[C@@H](NC(=O)[C@@H](N)CC(=O)O)CSSC[C@H](NC(=O)[C@H](CSSC[C@@H](C(=O)N[C@@H](CCCCN)C(=O)N[C@@H](CCCCN)C(=O)N[C@@H](Cc4ccc(O)cc4)C(=O)N[C@@H](CCCCN)C(=O)O)NC(=O)[C@H](Cc4ccc(O)cc4)NC(=O)[C@@H]4CCCN4C1=O)NC(=O)[C@H](CCCCN)NC(=O)[C@H](CCCCN)NC(=O)CNC(=O)[C@H](Cc1c[nH]c4ccccc14)NC(=O)[C@H](CO)NC3=O)C(=O)N[C@@H](CC(=O)O)C(=O)N[C@@H](CC(C)C)C(=O)N[C@@H](CC(=O)O)C(=O)N[C@@H](CC(N)=O)C(=O)N[C@@H](Cc1ccccc1)C(=O)N[C@@H](Cc1ccc(O)cc1)C(=O)N2 [K1(K2L4)] (H-DCAKEGEVCSWGKKCCDLDNFYCPLAFIPYCKKYK-OH; disulfide 2-16, 9-23, 15-31) | (0.90 ± 0.04) × 10^6
5 | CC[C@H](C)[C@@H]1NC(=O)[C@H](Cc2ccccc2)NC(=O)[C@H](CCC(=O)O)NC(=O)[C@H](CCSC)NC(=O)[C@@H]2CCCN2C(=O)[C@@H]2CSSC[C@@H]3NC(=O)[C@H](C(C)C)NC(=O)[C@H](CCC(=O)O)NC(=O)CNC(=O)[C@H](CCC(=O)O)NC(=O)[C@H](CCCCN)NC(=O)[C@H](C)NC(=O)[C@@H](NC(=O)[C@@H](N)CC(=O)O)CSSC[C@H](NC(=O)[C@H](CSSC[C@@H](C(=O)N[C@@H](CCCCN)C(=O)N[C@@H](CCCCN)C(=O)N[C@@H](Cc4ccc(O)cc4)C(=O)N[C@@H](CCCCN)C(=O)O)NC(=O)[C@H](Cc4c[nH]cn4)NC(=O)[C@@H]4CCCN4C1=O)NC(=O)[C@H](CCCCN)NC(=O)[C@H](CCCCN)NC(=O)CNC(=O)[C@H](Cc1c[nH]c4ccccc14)NC(=O)[C@H](CO)NC3=O)C(=O)N[C@@H](CC(=O)O)C(=O)N[C@@H](CC(C)C)C(=O)N[C@@H](CC(=O)O)C(=O)N[C@@H](CC(N)=O)C(=O)N[C@@H](Cc1ccccc1)C(=O)N[C@@H](Cc1ccc(O)cc1)C(=O)N2 [K1-ΔL] (H-DCAKEGEVCSWGKKCCDLDNFYCPMEFIPHCKKYK-OH; disulfide 2-16, 9-23, 15-31) | (3.9 ± 1.1) × 10^5
